Counter-ions that a name gives are not always drawn.
Key:
Human (6-His)Sortilin = molecular target: T1, Human (6-His)Sortilin (Homo sapiens, UniProt Q99523); test: Human Sortilin GCI (Grating-Coupled Interferometry) binding assay; settings: immobilised Human (6-His)Sortilin, Creoptix WAVE-RAPID, single concentration, 1:1 kinetic model; read-out: h-Sortilin GCI KD
T1 construct: purchased RnD Systems
T1 sequence (Q99523 78-831): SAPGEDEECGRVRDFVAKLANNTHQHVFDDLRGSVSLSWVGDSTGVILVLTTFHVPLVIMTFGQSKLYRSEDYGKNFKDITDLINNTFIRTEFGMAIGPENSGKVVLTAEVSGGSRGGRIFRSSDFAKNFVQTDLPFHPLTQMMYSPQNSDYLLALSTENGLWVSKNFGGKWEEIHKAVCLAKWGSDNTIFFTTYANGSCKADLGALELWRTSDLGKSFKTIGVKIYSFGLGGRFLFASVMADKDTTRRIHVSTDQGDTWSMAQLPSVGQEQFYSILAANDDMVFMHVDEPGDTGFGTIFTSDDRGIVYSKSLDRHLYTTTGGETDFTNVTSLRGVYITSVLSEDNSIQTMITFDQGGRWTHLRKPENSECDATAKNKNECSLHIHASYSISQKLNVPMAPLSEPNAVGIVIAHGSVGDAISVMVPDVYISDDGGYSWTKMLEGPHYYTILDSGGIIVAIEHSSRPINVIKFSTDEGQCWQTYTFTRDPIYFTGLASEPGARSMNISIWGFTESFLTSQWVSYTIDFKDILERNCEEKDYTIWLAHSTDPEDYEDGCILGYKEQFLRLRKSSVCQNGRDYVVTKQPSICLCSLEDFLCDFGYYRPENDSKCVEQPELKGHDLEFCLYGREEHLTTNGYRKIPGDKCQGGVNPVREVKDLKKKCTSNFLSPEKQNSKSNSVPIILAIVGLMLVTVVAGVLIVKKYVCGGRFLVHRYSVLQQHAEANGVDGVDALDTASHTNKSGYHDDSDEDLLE

h-Sortilin = molecular target: T2, h-Sortilin (Homo sapiens, UniProt Q99523); test: Neurotensin scintillation proximity assay (SPA); format: binding; settings: displacement of 5 nM [3H]-Neurotensin, 150 nM 6his-Sortilin; average of at least 2 determinations
T2 sequence (Q99523 78-831): T1 sequence (Q99523 78-831)
Protocol: NTS, which is a 13 amino acid neuropeptide, is a sortilin ligand. […] Compound affinity was determined by measuring the displacement of [^3H]-neurotensin binding to h-Sortilin in SPA format. Total volume of 40 µl in 50 mM HEPES pH 7.4 assay buffer containing 100 mM NaCl, 2.0 mM CaCl2, 0.1 % BSA and 0.1 % Tween-20. Compound pre-incubation for 30 minutes at room temperature with 150 nM of 6his-Sortilin before 5 nM [3H]-Neurotensin and Ni chelate imaging beads (Perkin Elmer) were added, after 6 hours the plate was read on a ViewLux with 360 s exposure time. Dose-response evaluation of compounds was performed with 8 concentrations of drugs (covering 3 decades). IC50 values were calculated by nonlinear regression using the sigmoid concentration-response (variable slope) using CDD Vault software. All values reported are average of at least 2 determinations.

[1] = molecular target: T3, Sortilin receptor at the cell surface (Homo sapiens, UniProt Q99523); test: Progranulin cell surface engagement assay; format: cell-based; settings: displacement of 100 nM PGRN-AF647, HEK293 engineered to express sortilin, on ice; average of at least 2 determinations
T3 construct: expressed in transfected cells; host or cells: HEK293
T3 sequence (Q99523 78-831): T1 sequence (Q99523 78-831)
Protocol: PGRN is a sortilin ligand.
Compound affinity was determined by measuring the ability of compounds to displace the binding of Progranulin-Alexa Fluor 647 (PGRN-AF647) binding to the Sortilin receptor at the cell surface. HEK293 engineered to express sortilin were pre-incubated with compound for 30 minutes on ice in 20 µl assay buffer containing 1% BSA in PBS. Dose-response evaluation of compounds was performed with 10 concentrations of drugs (10 point half log curve). PGRN-AF647 was added at 100 nM concentration in 20 µl assay buffer for 2 hours on ice. Data was acquired using iQue flow cytometer (IntelliCyt). IC50 values were calculated by nonlinear regression using the sigmoid concentration-response (variable slope) using CDD Vault software. All values reported are average of at least 2 determinations.

Kd (Human (6-His)Sortilin)	IC50 (h-Sortilin)	IC50 [1]	Compound
621 nM	2500 nM		CC(C)(C)CCC(C)(NCc1ccccc1)C(=O)O (racemic) [Example 1, rac-2-benzylamino-2,5,5-trimethylhexanoic acid]
	4020 nM		COc1cccc(CNC(C)(CCC(C)(C)C)C(=O)O)c1 (racemic) [Example 4, 2-((3-methoxybenzyl)amino)-2,5,5-trimethylhexanoic acid hydrochloride]
1270 nM			COc1cccc(CNC(C)(CCC(C)C)C(=O)O)c1 (racemic) [Example 7, 2-{[(m-methoxyphenyl)methyl]amino}-2,5-dimethylhexanoic acid]
4220 nM	840 nM		CC(C)(C)CCC(C)(NCc1cncnc1)C(=O)O (racemic) [Example 8, 2,5,5-trimethyl-2-{[(5-pyrimidinyl)methyl]amino}hexanoic acid]
	9740 nM		CC(C)(C)CCC(C)(NCCCc1ccccc1)C(=O)O (racemic) [Example 9, 2,5,5-trimethyl-2-(3-phenylpropylamino)hexanoic acid]
804 nM	383 nM	680 nM	CC(C)(C)CC[C@](C)(NCc1cncnc1)C(=O)O (single isomer, unassigned) [Example 10]
393 nM	2970 nM		CC(C)(C)CC[C@](C)(NCc1ccccc1)C(=O)O [Example 2, (S)-2-benzylamino-2,5,5-trimethylhexanoic acid]
21400 nM			CC(C)(C)CC[C@@](C)(NCc1ccccc1)C(=O)O [Example 3, (R)-2-benzylamino-2,5,5-trimethylhexanoic acid]
	1330 nM		COc1cccc(CN[C@@](C)(CCC(C)(C)C)C(=O)O)c1 [Example 5, (S)-2-((3-methoxybenzyl)amino)-2,5,5-trimethylhexanoic acid hydrochloride]
73500 nM			CC(C)(C)CCC(C)(NCc1cncnc1)C(=O)O (stereo not drawn) [Example 11]

From patent EP4428124A1, “MODULATORS OF SORTILIN ACTIVITY” (Vesper Bio Aps, priority 2023, dated 2024)
